Data from the SangsterLogP compilation.

Structure (SMILES)	logP
CCOc1ccc(C#N)cc1[N+](=O)[O-]	1.77
CCOc1ccc(C#N)cc1OC	2.06
CCOc1ccc(C#N)cc1Br	2.99
COc1cc(C#N)ccc1O	0.82
N#Cc1ccc(O)c(Br)c1	1.75
CCOc1ccc(C#N)cc1	2.03
COc1ccc(C#N)cc1OC	1.42
N#Cc1cccc([N+](=O)[O-])c1	1.3

Further lines, results first:

logP	Structure (SMILES)
1.23	COc1ccc(C#N)cc1[N+](=O)[O-]
2.89	CC(C)C(C#N)c1ccccc1 (configuration not stated)
1.36	CCOc1cc(C#N)ccc1O
2.42	N#Cc1ccc(Br)cc1
2.63	CC(C)C(C#N)c1ccc([N+](=O)[O-])cc1 (configuration not stated)
1.49	COc1ccc(C#N)cc1
2.35	COc1ccc(C#N)cc1Br
2.98	N#Cc1ccc(Cl)c(Cl)c1
2.68	COc1ccc(C(C#N)C(C)C)cc1 (configuration not stated)
